Measurements reported in article PMC10743905, “Design, Synthesis, and In Vitro and In Vivo Bioactivity Studies of Hydrazide–Hydrazones of 2,4-Dihydroxybenzoic Acid” (International Journal of Molecular Sciences, 2023).
Read-outs that look alike come from different tables or passages of the source.

Legend:
Type in all cases: cell-based
[1] = tested on: Micrococcus luteus ATCC 10240; experiment: Broth microdilution MIC/MBC
Excerpt: (§1) In vitro antimicrobial activity assays - Methodology
(§2) The examined compounds 1 - 24 were screened in vitro for antibacterial and antifungal activities using the broth microdilution method according to procedure reported earlier by our research group and European Committee on Antimicrobial Susceptibility Testing (EUCAST) and Clinical and Laboratory Standards Institute (CLSI) guidelines against a panel of reference and clinical or saprophytic strains of microorganisms, in-cluding Gram-positive bacteria, Staphylococcus aureus ATCC 43300 (Methicillin Resistant S. aureus – MRSA), Staphylococcus aureus ATCC 29213 (Methicillin Susceptible S. aureus – MSSA), Staphylococcus epidermidis ATCC 12228, Enterococcus faecalis ATCC 29212, Micro-coccus luteus ATCC 10240, Bacillus subtilis ATCC 6633 and Bacillus cereus ATCC 10876), Gram-negative bacteria (Bordetella bronchiseptica ATCC 4617, Escherichia coli ATCC 25922, Klebsiella pneumoniae ATCC 13883, Proteus mirabilis ATCC 12453, Salmonella typhimurium ATCC 14028 and Pseudomonas aeruginosa ATCC 9027) and fungi belonging to yeasts (Can-dida albicans ATCC 10231, Candida albicans ATCC 2091, Candida parapsilosis ATCC 22019, Candida glabrata ATCC 90030 and Candida krusei ATCC 14243). The microorganisms be-longing to ATCC came from American Type Culture Collection, routinely used for the evaluation of antimicrobials. […]
(§3) Samples containing examined compounds were dissolved in dimethyl sulfoxide (DMSO). […]
(§4) Subsequently, the MIC (Minimal Inhibitory Concentration) of the compounds was ex-amined by the microdilution broth method, using their two-fold dilutions in Mueller- […]
(§5) Hinton broth or (for bacteria) and RPMI 1640 broth with MOPS (for fungi) prepared in 96-well polystyrene plates. Final concentrations of the compounds ranged from 1000 to 0.488 µg/ml. Microbial suspensions were prepared in 0.85% NaCl with an optical density of 0.5 McFarland standard. Next each bacterial or fungal suspension was added per each well containing broth and various concentrations of the examined compounds. After incuba-

[2] = tested on: Proteus mirabilis ATCC 12453; experiment: Broth microdilution MIC/MBC
Excerpt: as §1, §2, §3, §4, §5

[3] = tested on: Pseudomonas aeruginosa ATCC 9027; experiment: Broth microdilution MIC/MBC; settings: ATCC9027
Excerpt: as §1, §2, §3, §4, §5

[4] = tested on: Salmonella typhimurium ATCC 14028; experiment: Broth microdilution MIC/MBC
Excerpt: as §1, §2, §3, §4, §5

[5] = tested on: Staphylococcus aureus ATCC 29213; experiment: Broth microdilution MIC/MBC
Excerpt: as §1, §2, §3, §4, §5

[6] = tested on: Staphylococcus aureus ATCC 43300; experiment: Broth microdilution MIC/MBC; settings: Staphylococcus aureus ATCC 43300 (MRSA)
Excerpt: as §1, §2, §3, §4, §5

[7] = tested on: Staphylococcus epidermidis ATCC 12228; experiment: Broth microdilution MIC/MBC
Excerpt: as §1, §2, §3, §4, §5

[8] = tested on: Bacillus subtilis ATCC 6633; experiment: Broth microdilution MIC/MBC
Excerpt: Detailed procedures are presented in the Supplementary Materials. […]
as §1
as §2, with “antimicrobials. All the used microbial cultures were first subcultured on nu-trient agar or Sabouraud agar at 35°C for 18-24 h or 30°C for 24-48 h for bacteria and fungi,” for “antimicrobials.”
(§6) The surface of Mueller-Hinton agar (for bacteria) and RPMI 1640 with MOPS (for fungi) were inoculated with the suspensions of bacterial or fungal species. Microbial suspensions were prepared in sterile saline with an optical density of McFarland standard scale 0.5.
(§7) Samples containing examined compounds were dissolved in dimethyl sulfoxide (DMSO).
(§8) Furthermore, bacterial and fungal suspensions were put onto Petri dishes with solid me-dia containing 2 mg/mL of the tested compounds followed incubation at 37°C for 24h and 30°C for 48h for bacteria and fungi, respectively. The inhibition of microbial growth was judged by comparison with a control culture prepared without any sample tested. Ciprof-loxacin, vancomycin, nitrofurantoin, cefuroxime, ampicillin or nystatin (Sigma) were used as a reference antibacterial or antifungal compounds, respectively.
as §4, §5

[9] = tested on: Bacillus cereus ATCC 10876; experiment: Broth microdilution MIC/MBC
Excerpt: as §1
as §2, with “antimicrobials. All the used microbial cultures were first subcultured on nu-trient agar or Sabouraud agar at 35°C for 18-24 h or 30°C for 24-48 h for bacteria and fungi,” for “antimicrobials.”
as §6, §7, §8, §4, §5

[10] = tested on: Bordetella bronchiseptica ATCC 4617; experiment: Broth microdilution MIC/MBC
Excerpt: as §1
as §2, with “antimicrobials. All the used microbial cultures were first subcultured on nu-trient agar or Sabouraud agar at 35°C for 18-24 h or 30°C for 24-48 h for bacteria and fungi,” for “antimicrobials.”
as §6, §7, §8, §4, §5

[11] = tested on: Enterococcus faecalis ATCC 29212; experiment: Broth microdilution MIC/MBC
Excerpt: as §1
as §2, with “antimicrobials. All the used microbial cultures were first subcultured on nu-trient agar or Sabouraud agar at 35°C for 18-24 h or 30°C for 24-48 h for bacteria and fungi,” for “antimicrobials.”
as §6, §7, §8, §4, §5

[12] = tested on: Escherichia coli ATCC 25922; experiment: Broth microdilution MIC/MBC
Excerpt: as §1
as §2, with “antimicrobials. All the used microbial cultures were first subcultured on nu-trient agar or Sabouraud agar at 35°C for 18-24 h or 30°C for 24-48 h for bacteria and fungi,” for “antimicrobials.”
as §6, §7, §8, §4, §5

[13] = tested on: Klebsiella pneumoniae ATCC 13883; experiment: Broth microdilution MIC/MBC
Excerpt: as §1
as §2, with “antimicrobials. All the used microbial cultures were first subcultured on nu-trient agar or Sabouraud agar at 35°C for 18-24 h or 30°C for 24-48 h for bacteria and fungi,” for “antimicrobials.”
as §6, §7, §8, §4, §5

[14] = tested on: Candida albicans ATCC 10231; experiment: Broth microdilution MIC/MFC; settings: ATCC10231, read-out: MIC
Excerpt: as §1
as §2, with “antimicrobials. All the used microbial cultures were first subcultured on nu-trient agar or Sabouraud agar at 35°C for 18-24 h or 30°C for 24-48 h for bacteria and fungi,” for “antimicrobials.”
as §6, §7, §8, §4, §5

[15] = tested on: Candida albicans ATCC 2091; experiment: Broth microdilution MIC/MFC; settings: ATCC2091, read-out: MIC
Excerpt: as §1
as §2, with “antimicrobials. All the used microbial cultures were first subcultured on nu-trient agar or Sabouraud agar at 35°C for 18-24 h or 30°C for 24-48 h for bacteria and fungi,” for “antimicrobials.”
as §6, §7, §8, §4, §5

[16] = tested on: Candida glabrata ATCC 90030; experiment: Broth microdilution MIC/MFC
Excerpt: as §1
as §2, with “antimicrobials. All the used microbial cultures were first subcultured on nu-trient agar or Sabouraud agar at 35°C for 18-24 h or 30°C for 24-48 h for bacteria and fungi,” for “antimicrobials.”
as §6, §7, §8, §4, §5

[17] = tested on: Candida krusei ATCC 14243; experiment: Broth microdilution MIC/MFC; settings: Pichia kudriavzevii, ATCC14243, read-out: MIC
Excerpt: as §1
as §2, with “antimicrobials. All the used microbial cultures were first subcultured on nu-trient agar or Sabouraud agar at 35°C for 18-24 h or 30°C for 24-48 h for bacteria and fungi,” for “antimicrobials.”
as §6, §7, §8, §4, §5

[18] = tested on: Candida parapsilosis ATCC 22019; experiment: Broth microdilution MIC/MFC
Excerpt: as §1
as §2, with “antimicrobials. All the used microbial cultures were first subcultured on nu-trient agar or Sabouraud agar at 35°C for 18-24 h or 30°C for 24-48 h for bacteria and fungi,” for “antimicrobials.”
as §6, §7, §8, §4, §5

[19] = tested on: reference Gram-positive bacteria; experiment: Broth microdilution, summary over the Gram-positive panel; settings: read-out: MIC
Excerpt: as §1, §2, §3, §4, §5

[20] = tested on: Gram-negative bacteria; experiment: Broth microdilution, summary over the Gram-negative panel
Excerpt: as §1
as §2, with “antimicrobials. All the used microbial cultures were first subcultured on nu-trient agar or Sabouraud agar at 35°C for 18-24 h or 30°C for 24-48 h for bacteria and fungi,” for “antimicrobials.”
as §6, §7, §8, §4, §5

Cc1cccc(/C=N/NC(=O)c2ccc(O)cc2O)c1 [Compound 2, 2,4-dihydroxy-N-[(3-methylphenyl)methylidene]benzohydrazide]
> 2: MFC/MIC [18]
500 µg/mL: MBC [6] | MBC ([7]; ATCC12228) | MBC ([8]; ATCC6633) | MBC ([11]; ATCC29212, read-out: MBC) | MIC ([11]; ATCC29212, read-out: MIC) | MFC ([16]; Nakaseomyces glabratus, ATCC90030, read-out: MFC) | MIC ([18]; Lodderomyces parapsilosis, ATCC22019, read-out: MIC)
8: MBC/MIC [1] | MBC/MIC [8]
31.25 µg/mL: MIC [1]
31.2 µg/mL: MIC ([1]; ATCC10240, read-out: MIC)
15.6 to 1000 µg/mL: MIC [19]
250 µg/mL: MBC ([1]; ATCC10240) | MBC ([5]; ATCC29213) | MIC ([5]; ATCC29213) | MIC [6] | MIC ([7]; ATCC12228, read-out: MIC) | MBC ([9]; ATCC10876) | MIC ([16]; Nakaseomyces glabratus, ATCC90030, read-out: MIC)
125 µg/mL: MIC ([9]; ATCC10876, read-out: MIC)
> 1: MBC/MIC [2] | MBC/MIC [4] | MBC/MIC [10] | MBC/MIC [12] | MBC/MIC [13]
1000 µg/mL: MIC ([2]; ATCC12453) | MIC ([4]; Salmonella enterica) | MIC ([10]; ATCC4617) | MIC ([12]; ATCC25922) | MIC ([13]; ATCC13883)
> 1000 µg/mL: MBC ([2]; ATCC12453) | MIC [3] | MBC ([4]; Salmonella enterica) | MBC ([10]; ATCC4617) | MBC ([12]; ATCC25922) | MBC ([13]; ATCC13883) | MIC [14] | MIC [15] | MIC [17] | MFC ([18]; Lodderomyces parapsilosis, ATCC22019, read-out: MFC) | MBC [20]
1: MBC/MIC [5] | MBC/MIC [11]
2: MBC/MIC [6] | MBC/MIC [7] | MBC/MIC [9] | MFC/MIC [16]
62.5 µg/mL: MIC [8] | MIC ([8]; ATCC6633, read-out: MIC)
500 to 1000 µg/mL: MIC [20]
